Patent US20220002288A1, “MONOBACTAM COMPOUNDS AND USE THEREFOR” (priority 2018, published 2022)
Converted amounts (≈) assume the structure as drawn. One block for each compound: values may come before it.

Tests used:
Pseudomonas aeruginosa = experiment: In vitro antibacterial activity, minimum inhibitory concentration (MIC); type: cell-based
Method: (§1) Compounds: The compounds prepared in the above examples and comparative examples. All test compounds were dissolved and diluted with DMSO, and the final concentrations were prepared as 64, 32, 16, 8, 4, 2, 1, 0.5, 0.25, 0.125, 0.0625 μg/mL in the experiment.
(§2) Bacterial strains: 6 strains of Acinetobacter baumannii (codenames: HDBAB-YK4, HDBAB-YK7, HDBAB-YK12, HDBAB-YK16, HDBAB_OXA_7, ATCC 19606), 2 strains of Pseudomonas aeruginosa (codenames: HDBPA-YK9, HDBPA)-YK15), 1 strain of Escherichia coli (codename: CLB30048), all provided by HD Biosciences (Shanghai) Co., Ltd.
(§3) Medium: Trypticase soy agar (TSA) (BD BBL 211043), and Cation-adjusted Mueller Hinton broth (CAMHB) (BD BBL212322).
(§4) The bacteria used for the minimum inhibitory concentration (MIC) test were stored frozen at −80° C., and needed 2 days to recover before use. A small amount of frozen bacteria was scraped with a sterile inoculation loop for streak inoculation on a TSA solid medium petri dish. The dish was placed in an ordinary incubator at 35±2° C. for 20-24 hours. 5-10 Colonies with similar morphologies were picked from the above-mentioned petri dish with a sterile inoculating loop for streak inoculation again on a TSA solid medium petri dish. The dish was then placed in an ordinary incubator at 35±2° C. for 20-24 hours.
(§5) 1.02×CAMHB liquid medium was taken out from a 4° C. refrigerator and placed at room temperature for preheating. 5-10 Individual bacterial colonies were picked from the solid petri dish of the above Section 2.1 and re-suspended in 500 μL of 0.9% NaCl, and then the OD600 was adjusted to 0.1-0.15 with a spectrophotometer. Then the bacteria were diluted 400 times with 1.02×CAMHB (two-step dilution method: firstly diluting 10 times, then diluting 40 times).
(§6) The number of inoculated bacteria can be obtained by counting the colonies on the petri dish (see Section 2.4).
(§7) One compound was arranged in each row of a 96-well test plate: the highest test concentration for each compound was 64 μg/mL, which was diluted by a factor of two.
(§8) Growth control (GC): 1.02×CAMHB and dimethyl sulfoxide (DMSO) containing bacterial inoculum, no compound.
(§9) Sterile control (SC): Containing 1.02×CAMHB and DMSO, no compound.
(§10) All test compounds were dissolved and diluted with DMSO. 50 μL of 3.2 mg/mL of each test compound was transferred to the initial well (A1-H1) of the dilution plate, and then 25 μL of DMSO was transferred to other wells. The test compounds were sequentially diluted by a factor of 2 from column 1 to column 11 (i.e. drawing 25 μL of test compound from column 1 to column 2 and mixing well, and then drawing 25 μL of test compound from column 2 to column 3 and mixing well, and then drawing 25 μL of test compound from column 3 to column 4 and mixing well, and so on, until diluting to column 11).
(§11) 2 μL of the compound was transferred from the compound plate to the corresponding well of the test plate. Meanwhile, 2 μL of 100% DMSO was transferred to the compound-free wells (the GC and SC wells).
(§12) 98 μL of the corresponding bacterial inoculum was added to the test plate (except for the SC well).
(§13) 98 μL of 1.02×CAMHB medium was added to the SC well of the test plate.
(§14) After the system was added, the test plate was covered with a sterile lid, centrifuged at 800 rpm for 30 seconds, then shaken on a plate shaker at 400 rpm for 1 minute for mixing well, and then placed in an incubator at 35±2° C. for 20 hours.
(§15) The inoculated bacteria were gradient diluted by 10 folds with the liquid medium, from 10^−1 to 10^−3. 100 μL of the above bacterial dilution was spread evenly on a TSA petri dish, 2 replicates for each dilution. After the medium was absorbed by TSA for 10 minutes, the petri dishes were reversed and incubated in an incubator at 35±2° C. for 24 hours.
(§16) A compound management system was turned on to check whether the barcode and compound arrangement of each test plate were correct. […]

Escherichia coli = experiment: as above; type: cell-based; conditions: strain CLB30048, read-out: MIC
Method: as §1, §2, §3, §4, §5, §6, §7, §8, §9, §10, §11, §12, §13, §14, §15, §16

Acinetobacter baumannii = experiment: as above; type: cell-based
Method: as §1, §2, §3, §4, §5, §6, §7, §8, §9, §10, §11, §12, §13, §14, §15, §16

[1] = system: Acinetobacter baumannii, Pseudomonas aeruginosa, and Escherichia coli; experiment: In vitro antibacterial activity, summary statements over all strains of Experimental Example 1; type: cell-based; conditions: method of Experimental Example 1
Method: as §1, §2
The minimum inhibitory concentration (MIC) of each compound was recorded according to the guidelines of the Clinical and Laboratory Standards Institute.

[2] = Pharmacokinetics of the compounds in mice; type: in vivo, BALB/c mice
Excerpt: Animals: male BALB/c mice, SPF grade, purchased from Changzhou Cavens Experimental Animal Co., Ltd.; 16-24 g, license number: SCXK (Su)2016-0010; 2 to 3 days of adaptation period were given before the experiment.
Instruments: API 4500 High Performance Liquid Chromatograph Coupled Triple Quadrupole Mass Spectrometer, and Analyst QS A01.01 Chromatography Workstation were both purchased from AB SCIEX of the United States; Milli-Q ultrapure water device was purchased from Millipore; CF16R XII desktop high-speed refrigerated centrifuge was purchased From Hitachi Company; Qilinbeier Vortex-5 oscillator was purchased from IKA Company of German; electric heating constant-temperature water bath was purchased from Changzhou Guohua Electric Appliance Co., Ltd.; electric pipette was purchased from Thermo Company of American; and microanalysis balance was purchased from Shanghai Mettler Co., Ltd.
2 mg of the test compound was weighed, added to physiological saline, vortexed for 2 min, and ultrasonicated for 3 min, to prepare a test solution with a concentration of 0.2 mg/mL for intravenous administration.
A single dose of 2 mg/kg of the test compound was administered to BALB/c mice via the tail vein, the dose volume being 0.1 mL/10 g. At 5 min, 15 min, 30 min, 1 h, 2 h, 4 h after administration, blood samples were collected from the orbital venous plexus into heparinized EP tubes (0.6 mL), which were temporarily placed on crushed ice.
The samples were centrifuged at 8000 rpm for 5 min. 15 μL of upper plasma were transferred to a 96-well plate. 150 μL of methanol:acetonitrile (v/v=1:1) (containing 20 ng/mL tolbutamide) was added to 15 μL of plasma, shaken for 3 min, and centrifuged at 4500 rpm for 5 min. 100 μL of supernatant was taken to a 2 mL deep well plate. 100 μL of diluent (pure water) was added. The samples were shaken for 3 min, and centrifuged at 4500 rpm for 5 min. 180 μL of the supernatant was transferred to the sample plate. The content of the compound in the supernatant sample was analyzed by LC-MS/MS, and various pharmacokinetic parameters were calculated with WinNonlin software.

[3] = system: clinically isolated Acinetobacter baumannii; experiment: MIC experiment of clinically sourced bacterial strains; type: cell-based; conditions: for MIC: Acinetobacter baumannii
Method: (§17) Compounds: the compound of Example 1 and Compound C of Comparative Example 3. Both test compounds were dissolved and diluted with DMSO, and the final concentrations were prepared as 64, 32, 16, 8, 4, 2, 1, 0.5, 0.25, 0.125, 0.0625 μg/mL in the experiment.
(§18) Bacterial strains: clinically isolated Acinetobacter baumannii, Pseudomonas aeruginosa, Klebsiella pneumoniae and Escherichia coli, all provided by HD Biosciences (Shanghai) Co., Ltd.
as §3
(§19) The experimental method was the same as that in the above Experimental Example 1.

[4] = system: clinically isolated Klebsiella pneumoniae; experiment: as above; type: cell-based; conditions: Klebsiella pneumoniae
Method: as §17, §18, §3, §19

[5] = system: clinically isolated Escherichia coli; experiment: as above; type: cell-based
Method: as §17, §18, §3, §19

[6] = system: clinically isolated Pseudomonas aeruginosa; experiment: as above; type: cell-based
Method: as §17, §18, §3, §19

[7] = system: drug-resistant Acinetobacter baumannii; experiment: MIC in combination with Relebactam; type: cell-based
Excerpt: In addition, the inventors of the present invention also tested the inhibitory activities of the compound of Example 1 and Compound C, respectively, in combination with Relebactam on drug-resistant Acinetobacter baumannii (the experimental method was the same as that in Experimental Example 1).

[8] = mouse, male BALB/c mice, single intravenous dose 2 mg/kg, plasma

Compound: CC(CN)Nc1ccc(-c2ccc(OC[C@H](O/N=C(\C(=O)N[C@@H]3C(=O)N(OS(=O)(=O)[O-])C3(C)C)c3csc(N)n3)C(=O)O)cc2)c[n+]1C (stereo partly shown) [Compound A, reference compound]
MIC (Pseudomonas aeruginosa; strain HDBPA-YK9): 16 µg/mL (≈ 22.6 µM) | MIC (Pseudomonas aeruginosa; strain HDBPA-YK15): 64 µg/mL (≈ 90.6 µM) | MIC (Escherichia coli): 8 µg/mL (≈ 11.3 µM) | MIC (Acinetobacter baumannii; strain HDBAB-YK4): 16 µg/mL (≈ 22.6 µM) | MIC (Acinetobacter baumannii; strain HDBAB-YK7): 8 µg/mL (≈ 11.3 µM) | MIC (Acinetobacter baumannii; strain HDBAB-YK12): 4 µg/mL (≈ 5.66 µM) | MIC (Acinetobacter baumannii; strain HDBAB-YK16): 16 µg/mL (≈ 22.6 µM) | MIC (Acinetobacter baumannii; strain HDBAB_OXA_7): 16 µg/mL (≈ 22.6 µM) | in vitro antibacterial activity (in words) [1]: significantly weaker | Vd ([2]; male, BALB/c, mouse, plasma, iv, 2 mg/kg, male BALB/c mice, single intravenous dose 2 mg/kg, plasma, read-out: VSS): 0.4 L/kg | AUC(0-inf) [2, 8]: 2800 ng·h/mL | AUC(0-t) [2, 8]: 2140 ng·h/mL | C0 [2, 8]: 5920 ng/mL | clearance [2, 8]: 265 mL/min/kg | half-life [2, 8]: 18 min

MIC ([3]; clinical strain A0242702): ≤ 0.063 µg/mL | MIC ([3]; clinical strain A0244122): 2 µg/mL (≈ 2.72 µM) | MIC ([3]; clinical strain A0248164): 2 µg/mL (≈ 2.72 µM) | MIC ([3]; clinical strain A0248384): 2 µg/mL (≈ 2.72 µM) | MIC ([3]; clinical strain A0252247): 0.125 µg/mL (≈ 0.17 µM) | MIC ([3]; clinical strain A0254384): 0.125 µg/mL (≈ 0.17 µM) | MIC ([3]; clinical strain A0255830): 16 µg/mL (≈ 21.7 µM) | MIC ([3]; clinical strain A0257674): 0.125 µg/mL (≈ 0.17 µM) | MIC ([3]; clinical strain A0258522): 0.125 µg/mL (≈ 0.17 µM) | MIC ([3]; clinical strain A0262855): 0.125 µg/mL (≈ 0.17 µM) | MIC ([3]; clinical strain A0270386): 1 µg/mL (≈ 1.36 µM) | MIC ([3]; clinical strain A0272260): 0.125 µg/mL (≈ 0.17 µM) | MIC ([3]; clinical strain A0273375): 1 µg/mL (≈ 1.36 µM) | MIC ([3]; clinical strain A0273826): 16 µg/mL (≈ 21.7 µM) | MIC ([3]; clinical strain A0274925): 0.25 µg/mL (≈ 0.34 µM) | MIC ([3]; clinical strain A0283307): 0.125 µg/mL (≈ 0.17 µM) | MIC ([3]; clinical strain A0284214): 0.125 µg/mL (≈ 0.17 µM) | MIC ([3]; clinical strain A0284295): 0.125 µg/mL (≈ 0.17 µM) | MIC ([3]; clinical strain A0284552): 0.5 µg/mL (≈ 0.68 µM) | MIC ([3]; clinical strain A0285002): 2 µg/mL (≈ 2.72 µM) | MIC ([3]; clinical strain A0285050): 0.25 µg/mL (≈ 0.34 µM) | MIC ([3]; clinical strain A0285231): 2 µg/mL (≈ 2.72 µM) | MIC ([3]; clinical strain A0285299): 0.25 µg/mL (≈ 0.34 µM) | MIC ([3]; clinical strain A0285369): ≤ 0.063 µg/mL | MIC ([3]; clinical strain A0285909): 16 µg/mL (≈ 21.7 µM) | MIC ([3]; clinical strain A0286065): 2 µg/mL (≈ 2.72 µM) | MIC90 ([3]; clinically isolated Acinetobacter baumannii): 16 µg/mL (≈ 21.7 µM) | MIC ([4]; clinical strain Kp309): 0.25 µg/mL (≈ 0.34 µM) | MIC ([4]; clinical strain Kp310): ≤ 0.063 µg/mL | MIC ([4]; clinical strain Kp472): 0.125 µg/mL (≈ 0.17 µM) | MIC ([4]; clinical strain Kp510): 0.25 µg/mL (≈ 0.34 µM) | MIC ([5]; clinical strain HDB0140): 2 µg/mL (≈ 2.72 µM) | MIC ([5]; clinical strain HDB0918): 0.25 µg/mL (≈ 0.34 µM) | MIC ([5]; clinical strain HDB1120): 0.125 µg/mL (≈ 0.17 µM) | MIC ([5]; clinical strain HDB5510): 0.25 µg/mL (≈ 0.34 µM) | MIC ([5]; clinical strain HDB8244): 0.25 µg/mL (≈ 0.34 µM) | MIC ([6]; clinical strain P7): 2 µg/mL (≈ 2.72 µM) | MIC ([6]; clinical strain P43): 0.25 µg/mL (≈ 0.34 µM) | MIC ([6]; clinical strain P155): 2 µg/mL (≈ 2.72 µM) | MIC ([6]; clinical strain P157): 2 µg/mL (≈ 2.72 µM) | MIC ([6]; clinical strain P162): 2 µg/mL (≈ 2.72 µM) | MIC ([7]; strain HDBAB-YK12, in combination with 4 μg/mL Relebactam): 8 µg/mL | MIC ([7]; strain HDBAB-YK16, in combination with 4 μg/mL Relebactam): 16 µg/mL | MIC ([7]; strain HDBAB_OXA_7, in combination with 4 μg/mL Relebactam): 16 µg/mL | bioavailability (F) (in words) ([2]; compared with some compounds of the present invention): weaker
Compound: CC1(C)[C@H](NC(=O)/C(=N\O[C@@H](COc2ccc(-c3cn(CCCN)[n+](CC4CNC4)c3)cc2)C(=O)O)c2csc(N)n2)C(=O)N1OS(=O)(=O)[O-] [Compound C, reference compound]
in vitro antibacterial activity (in words) [1]: weaker
